Here are results for one compound from patent US20240335464A1, “ADMINISTRATION OF STING AGONIST, CHECKPOINT INHIBITORS, AND RADIATION” (Takeda Pharmaceutical Company Limited, priority 2020, published 2024).

This test relates to EMT6 mouse breast carcinoma syngeneic tumor. Nature of the test: Study 1: EMT6 mouse syngeneic tumor model, subcutaneous, anti-tumor efficacy. It counts as in vivo, female BALB/c mice. The conditions noted are these: for GRI (%) Day 19: vs vehicle; for Number of Complete Regressions: n=10/group, 72-day study; for Combination Assessment / Synergy Score %: data through Day 19. From the text:
Studies 1 and 2: EMT6 is a mouse breast carcinoma cell line. EMT6 mouse syngeneic tumor model was generated by subcutaneous (sc) inoculation with 0.2×10^6 EMT6 cells (cell suspension) in nine to ten week old female BALB/c mice (Vital River Laboratory Animal Technology Co., Ltd., Beijing, China) in the flank. When the mean tumor volume reached 60 mm^3 in Study 1 and 75 mm^3 in Study 2 the animals were randomized into one vehicle control and seven treatment groups (n=10/group). Mice were then dosed with vehicle (phosphate buffered saline (PBS)) or Compound No. 14 or 10 Gy Radiation or Compound No. 14 plus 10 Gy Radiation over an eight-day period. Tumor growth and body weight were measured three times per week during the treatment and post-treatment periods. Mice were humanely euthanized once they reached their humane endpoint or until study termination on day 72 (Study 1) or on day 60 (Study 2).
Studies 1 and 2: A 0.1 mg/mL stock solution of Compound No. 14 was formulated in PBS and administered intravenously (IV) based on exact animal body weight on each day of treatment, using a dosing volume of 10 mL/kg body weight. Final doses received were 1.0 mg/kg. […] Compound No. 14 was administered on a Q3D schedule for 3 doses (Day 2, 5 and 8) in single agent treatment group and in combination treatment groups. Dose formulation of Compound No. 14 was prepared once and utilized for dosing on Days 2, 5 and 8.
Radiation treatment for Studies 1 and 2 was performed using RadSource RS 2000 X-ray irradiator (Rad Source Technologies). Animals received 1.046 Gy/minute of radiation and approximately 9.5 min was needed to reach a 10 Gy dose delivery. Animals were anesthetized prior to placement in irradiation chamber using isoflurane and checked for reflexes. Radiation beam was focused on tumor with manual positioning. Radiation was administered via manual positioning in a single 10 Gy dose on either day 0, 2 or 4 in Study 1, and on either day 0, 1, 2, 3 or 4 in Study 2.
Tumors were measured three times weekly using vernier calipers. Tumor volumes were calculated using standard equation: V=W^2×L/2, where V=volume, W=width, and L=length for the tumor. When mean tumor volumes reached approximately 60 mm^3 for Study 1, 75 mm^3 for Study 2, and 110 mm^3 for Study 3, mice were randomized into eight groups (n=10/group) in Studies 1 and 2, and nine groups (n=8/group) in Study 3. These groups were then dosed with vehicle (PBS), Compound No. 14, Radiation, anti-mPD-1 or isotype control, or combinations of these agents as described in Tables 1a, 2a, and 3a. Tumor size and body weight were measured three times a week for the duration of each study. Mice were euthanized for Studies 1 and 2 when their tumor volumes reached greater than 10% of their body weight or when an individual tumor exceeded the humane end-point for size (>2 cm) or when an animal lost 20% of their body weight relative to the start of the study or lost 15% of their body weight in any 24 hr time frame. Mice were euthanized in Study 3 when tumor volume exceeded 2,000 mm^3 or an animal lost more than 20% of their body weight relative to the start of study.
Growth Rate Inhibition: The differences in the tumor growth trends over time between pairs of treatment groups were assessed by fitting each animal's data to a simple exponential growth model and comparing the mean growth rates of the two groups, as described in more detail below. The difference in the growth rates was summarized by the GRI, which is the reduction in growth rate experienced by the treatment group relative to that of the reference group, expressed as a fraction of the vehicle growth rate.
μT and μC are the mean tumor growth rates for the treatment and reference groups, respectively. μV is the mean tumor growth rate for the vehicle group, which in most cases is the same as the reference group.
A GRI greater than 100% is interpreted as tumor regression when the vehicle group is the same as the reference group. […]

Where [1] appears, read: Compound No. 14 1.0 mg/kg IV Q3D×3 + 10Gy Radiation (Day 0).
Setting [2] is: Compound No. 14 1.0 mg/kg IV Q3D×3 + 10Gy Radiation (Day 2).
The mark [3] stands for this setting: Compound No. 14 1.0 mg/kg IV Q3D×3 + 10Gy Radiation (Day 4).
Where [4] appears, read: Compound No. 14 + Radiation (10 Gy) Day 0.
Setting [5] is: Compound No. 14 + Radiation (10 Gy) Day 2.
Where [6] appears, read: Compound No. 14 + Radiation (10 Gy) Day 4.

For the compound `Nc1ncnc2c1ncn2[C@@H]1O[C@@H]2COP(=O)(S)O[C@@H]3[C@H](O)[C@@H](COP(=O)(S)O[C@H]2[C@H]1F)O[C@H]3n1cc(F)c2c(=O)[nH]cnc21` (stereo partly drawn) [Compound No. 14], the “GRI (%) Day 19” value reads like this: (Compound No. 14 1.0 mg/kg IV Q3D×3 (Days 2, 5, 8), single agent) 30%; under setting [1], 82%; under setting [2], 60%; under setting [3], 67%. In addition, the “Number of Complete Regressions” value came out at 1 under setting [1]; 1 under setting [2]; 2 under setting [3]; 0 (Compound No. 14 1.0 mg/kg IV Q3D×3, single agent). Besides, the “Combination Assessment” value is, setting by setting: under setting [4], “Additive”; under setting [5], “Additive”; under setting [6], “additive”; (Compound No. 14 + Radiation (10 Gy) Day 4, listed as Compound No.14) “Additive”. In addition, the “Synergy Score %” value is −20% under setting [4], 7% under setting [5] and −10% under setting [6].
